The text below walks through data of ChEMBL document CHEMBL1926566, “Molecular docking studies of a phlorotannin, dieckol isolated from Ecklonia cava with tyrosinase inhibitory activity” (Bioorg Med Chem, 2012).

Structures are written as SMILES. pIC50: −log10 of the molar value. The source made the active and inactive calls. No cut-off for these calls is given here. Some results are limits rather than exact numbers.

Data set [1] has as its target T1, Tyrosinase (Agaricus bisporus) (UniProt O42713).
T1 sequence (whole entry): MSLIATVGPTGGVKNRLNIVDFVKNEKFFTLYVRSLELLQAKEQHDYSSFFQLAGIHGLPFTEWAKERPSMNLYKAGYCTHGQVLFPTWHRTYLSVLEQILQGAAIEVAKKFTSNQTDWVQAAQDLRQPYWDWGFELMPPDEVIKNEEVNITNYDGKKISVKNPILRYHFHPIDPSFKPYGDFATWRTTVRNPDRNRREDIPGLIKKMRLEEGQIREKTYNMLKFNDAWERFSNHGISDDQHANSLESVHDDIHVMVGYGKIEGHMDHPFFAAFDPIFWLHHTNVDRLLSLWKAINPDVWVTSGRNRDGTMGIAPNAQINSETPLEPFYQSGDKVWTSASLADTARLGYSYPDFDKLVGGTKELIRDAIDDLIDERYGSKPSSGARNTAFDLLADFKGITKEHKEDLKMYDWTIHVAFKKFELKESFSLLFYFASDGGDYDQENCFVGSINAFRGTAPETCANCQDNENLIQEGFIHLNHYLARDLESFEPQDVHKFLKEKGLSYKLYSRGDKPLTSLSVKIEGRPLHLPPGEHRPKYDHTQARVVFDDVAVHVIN
Description: (§1) Inhibition of mushroom tyrosinase hydroxylation activity using L-tyrosine as substrate after 30 mins by spectrophotometry.

The target of the next data set is T2, Tyrosinase (Agaricus bisporus, UniProt O42713).
T2 sequence (O42713 whole entry): T1 sequence (whole entry)
The description is as §1.

The target in data set [2] is T1, Tyrosinase (Agaricus bisporus). Description: Inhibition of mushroom tyrosinase hydroxylation activity using L-tyrosine as substrate at 120 uM after 30 mins by spectrophotometry.
The target is the same in data set [3]. Kind of data set: Non-competitive inhibition of mushroom tyrosinase assessed as inhibition of dopachrome formation by Lineweaver-Burk plot analysis.
Data set [4] is described as follows: Cytotoxicity against mouse B16F10 cells assessed as cell viability at 40 to 120 uM after 72 hrs by MTT assay. It is filed as cell-based, B16-F10.
Data set [5] addresses T3, Tyrosinase (Mus musculus) (UniProt P11344).
T3 sequence (whole entry): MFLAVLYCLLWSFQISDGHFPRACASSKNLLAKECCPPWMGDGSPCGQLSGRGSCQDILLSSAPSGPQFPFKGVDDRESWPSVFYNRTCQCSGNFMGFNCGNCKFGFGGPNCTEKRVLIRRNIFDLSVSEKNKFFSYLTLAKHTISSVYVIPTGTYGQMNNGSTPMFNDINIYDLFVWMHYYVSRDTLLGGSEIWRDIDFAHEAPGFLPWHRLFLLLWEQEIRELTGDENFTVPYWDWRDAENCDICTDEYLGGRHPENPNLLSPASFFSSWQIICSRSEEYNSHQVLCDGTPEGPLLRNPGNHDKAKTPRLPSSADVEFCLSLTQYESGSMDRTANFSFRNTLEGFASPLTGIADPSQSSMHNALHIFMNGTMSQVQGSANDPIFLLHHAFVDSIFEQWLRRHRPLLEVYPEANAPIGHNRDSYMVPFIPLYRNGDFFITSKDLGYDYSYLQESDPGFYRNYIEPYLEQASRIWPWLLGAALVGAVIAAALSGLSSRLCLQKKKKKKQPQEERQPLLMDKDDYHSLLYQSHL
Kind of data set: Inhibition of tyrosinase in alpha-MSH-stimulated mouse B16F10 cells assessed as inhibition of L-DOPA oxidation at 40 to 120 uM after 72 hrs by spectrophotometry. It is filed as cell-based. As to conditions: B16-F10.

A further data set has as its system B16-F10. Description: Antimelanogenic activity in mouse B16F10 cells assessed as inhibition of alpha-MSH-induced melanin formation at 40 to 120 uM after 72 hrs by spectrophotometry. It is filed as functional, cell-based.

For `Oc1cc(O)cc(Oc2c(O)cc(O)c3c2Oc2c(O)cc(Oc4c(O)cc(Oc5c(O)cc(O)c6c5Oc5c(O)cc(O)cc5O6)cc4O)cc2O3)c1` [DIECKOL], the figures for the inhibition result in data set [1] and in data set [2] were “Dose-dependent effect” and 89.3%, respectively. Besides, the pIC50 on Tyrosinase is 4.70. The inhibition entry in data set [3] and in data set [5] was “Active” each time. Further, the viability at 72 h, up to 120 µM in data set [4] was above 95%. Besides, the result in the data set on B16-F10 was Active.
Turning to `OC[C@H]1O[C@@H](Oc2ccc(O)cc2)[C@H](O)[C@@H](O)[C@@H]1O`, the inhibition result in data set [5] was “Active”. For the same compound, in the data set on B16-F10, the result was Active.
